Experimental data as given in US20240201204A1, “Biomarker and Druggable Target of Neurodegeneration” (University Hospitals Cleveland Medical Center, priority 2020, published 2024).

Key:
NAD^+ = experiment: Brain NAD+ measurement after TBI; format: in vivo, mouse
Procedure: (§1) Drug preparation and administration: CGP3466B (Sigma-Aldrich, SML1941) was dissolved in DMSO and then diluted in sterile saline. The final working stock was 0.0014 mg/ml for administering the 0.014 mg/kg dose. Intraperitoneal administration of CGP3466B was initiated 15 min or 24 h after injury, and tissues were harvested 6 h (for SNO-GAPDH, SNO-SIRT1 measurement) or 2 weeks (for ac-tau measurement) later, respectively. Salsalate (AdipoGen, AG-CR1-3574) was dissolved in DMSO and then diluted in sterile PBS. The final working stocks were as follows: 2.5 mg/ml (25 mg/kg dose), 1 mg/ml (10 mg/kg dose), 0.5 mg/ml (5 mg/kg dose). Daily intraperitoneal administration of salsalate was initiated 24 hr after injury and continued throughout behavioral testing. P7C3-A20 and FK866 (Sigma-Aldrich, F8557) were first dissolved in 1 vol of DMSO, followed by addition of 4 vol of Kolliphor and vigorously vortexing. The solution was then diluted with 30 vol of filtered 5% dextrose (pH 7.0). EX527 (Selleckchem, S1541) was dissolved in 1% DMSO+30% polyethylene glycol+1% Tween 80. Daily intraperitoneal administration of P7C3-A20 was initiated 24 hr after poly-traumatic brain injury. EX527 (10 mg/kg) was administer once a day and FK866 was treated twice per day, with the first injection given at the same time as P7C3-A20 (20 mg/kg) and the second injection given 6 h later (LoCoco et al., 2017 eLife). […]

axon initial segment = experiment: Axon initial segment (AIS) degradation after TBI (AnkG, βIV-spectrin staining); format: in vivo, mouse
Procedure: (§2) Drug preparation and administration: CGP3466B (Sigma-Aldrich, SML1941) was dissolved in DMSO and then diluted in sterile saline. The final working stock was 0.0014 mg/ml for administering the 0.014 mg/kg dose. Intraperitoneal administration of CGP3466B was initiated 15 min or 24 h after injury, and tissues were harvested 6 h (for SNO-GAPDH, SNO-SIRT1 measurement) or 2 weeks (for ac-tau measurement) later, respectively. Salsalate (AdipoGen, AG-CR1-3574) was dissolved in DMSO and then diluted in sterile PBS. The final working stocks were as follows: 2.5 mg/ml (25 mg/kg dose), 1 mg/ml (10 mg/kg dose), 0.5 mg/ml (5 mg/kg dose). Daily intraperitoneal administration of salsalate was initiated 24 hr after injury and continued throughout behavioral testing. P7C3-A20 and FK866 (Sigma-Aldrich, F8557) were first dissolved in 1 vol of DMSO, followed by addition of 4 vol of Kolliphor and vigorously vortexing. The solution was then diluted with 30 vol of filtered 5% dextrose (pH 7.0). EX527 (Selleckchem, S1541) was dissolved in 1% DMSO+30% polyethylene glycol+1% Tween 80. Daily intraperitoneal administration of P7C3-A20 was initiated 24 hr after poly-traumatic brain injury. EX527 (10 mg/kg) was administer once a day and FK866 was treated twice per day, with the first injection given at the same time as P7C3-A20 (20 mg/kg) and the second injection given 6 h later (LoCoco et al., 2017 eLife). Diflunisal was first dissolved in 1 vol of DMSO, followed by addition of 2 vol of Kolliphor and vigorously vortexing. The solution was then diluted with 7 vol of saline to the appropriate concentration for administration at 25, 50, or 100 mg/kg.
(§3) The pressure in the side not containing the mouse was increased to cause membrane rupture at 20 pounds per square inch (PSI), which generates an about 1-2 ms jet airflow of 137.9+/−13.79 kPa that passes through the animal's head. The head remains untethered in a padded holder, while the body is fully shielded by a metal tube. The jet of air produced upon membrane rupture provides a concussive injury, which is followed by acceleration/deceleration of the head and then exposure to the ensuing blast wave within an enclosed space.
Immunohistochemistry: Mice were transcardially perfused with cold 1× phosphate-buffered saline (PBS) followed by 4% paraformaldehyde in PBS at pH 7.4 under anesthesia. Brains were carefully removed and post-fixed in 4% paraformaldehyde overnight at 4° C. Brains were immersed in 30% sucrose in PBS for 72 h at 4° C. and then rapidly frozen in 2-methylbutane pre-cooled to −20° C. with dry ice. Brains were cut coronally (40 μm) and sections were stored in cryoprotective solution (150 mM Ethylene glycol, 100 mM glycerol, 250 mM PBS) at −20° C. For tau and NeuN staining, sections were washed three times with PBS for 5 min and then treated with 0.2% Triton X-100 in PBS for 15 min. Sections were washed with PBS and then incubated with 100 mM glycine for 15 min. After blocking sections using blocking buffer (1% bovine serum albumin, 10% normal goat serum, 0.3 M glycine) for 30 min, primary antibodies (Tau, Invitrogen, #13-6400, 1:100, NeuN, EMD Millipore Cor., #MABN-140, 1:500) were incubated overnight at 4° C. Sections were washed three times with PBS (5 min each) and then incubated with Alexa Fluor 488 goat anti-mouse (Invitrogen, A11001, 1:200) or Alexa Fluor 568 goat anti-rabbit (Life technologies, A11011, 1:200) at room temperature for 2 h. […]

tau = experiment: Tau mislocalization after TBI (tau and NeuN immunohistochemistry); format: in vivo, mouse
Procedure: as §2, §3
Immunohistochemistry: Mice were transcardially perfused with cold 1× phosphate-buffered saline (PBS) followed by 4% paraformaldehyde in PBS at pH 7.4 under anesthesia. Brains were carefully removed and post-fixed in 4% paraformaldehyde overnight at 4° C. Brains were immersed in 30% sucrose in PBS for 72 h at 4° C. and then rapidly frozen in 2-methylbutane pre-cooled to −20° C. with dry ice. Brains were cut coronally (40 μm) and sections were stored in cryoprotective solution (150 mM Ethylene glycol, 100 mM glycerol, 250 mM PBS) at −20° C. […]

GAPDH = molecular target: T1, GAPDH (Mus musculus, UniProt P16858); experiment: S-nitrosylation of GAPDH after TBI (SNO-resin assisted capture, western blot); format: in vivo; details: P7C3-A20 treatment after TBI
T1 construct: from tissue; host or cells: cerebral cortex of C57BL/6J mice after TBI
T1 sequence (P16858 whole entry): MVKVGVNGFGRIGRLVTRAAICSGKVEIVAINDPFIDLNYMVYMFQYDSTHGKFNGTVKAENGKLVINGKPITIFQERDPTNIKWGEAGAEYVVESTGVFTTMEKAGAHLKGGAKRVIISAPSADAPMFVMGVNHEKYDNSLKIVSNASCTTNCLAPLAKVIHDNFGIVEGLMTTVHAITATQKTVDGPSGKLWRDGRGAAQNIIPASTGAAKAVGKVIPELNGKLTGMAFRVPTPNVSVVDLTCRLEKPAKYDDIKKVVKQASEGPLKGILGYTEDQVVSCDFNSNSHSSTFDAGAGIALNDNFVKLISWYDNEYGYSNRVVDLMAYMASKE
Procedure: as §1, with “eLife). Diflunisal was first dissolved in 1 vol of DMSO, followed by addition of 2 vol of Kolliphor and vigorously vortexing.” for “eLife).”
SNO-resin assisted capture (SNO-RAC): SNO-RAC was performed as described previously (Forrester, 2009). […] After two times centrifugation (20,000 g at 4° C. for 20 min), protein concentration of supernatants was determined using Coomassie protein assay (Thermo Scientific, #1856210). […] SNO-proteins were then eluted with 2× Laemmli Sample Buffer (Bio-Rad Laboratories, Inc., #1610737) with 10% beta-mercaptoethanol (Bio-Rad Laboratories, Inc., #1610710) and analyzed by SDS-PAGE and immunoblotting.

[1] = test system: dementia, minor cognitive impairment, cognitive decline; details: about 19,000 subjects, placebo-controlled; cited from earlier work
p300/CBP = details: literature (Shirakawa et al., 2016); cited from earlier work
[2] = co-treatment with P7C3-A20, EX527 10 mg/kg once a day, FK866 twice per day
[3] = P7C3-A20 daily IP from 24 h after TBI

In the case of O=C(/C=C/c1cccnc1)NCCCCC1CCN(C(=O)c2ccccc2)CC1 [FK866], the “effect on P7C3-A20 rescue of NAD^+ levels” value (NAD^+; FK866 twice per day, co-administered with P7C3-A20 after TBI) is reported as “blocked”, the “effect on P7C3-A20 protection from post-TBI AIS degradation” value (axon initial segment; [2]) is reported as “This protective effect is blocked” and the “effect on P7C3-A20 protection from post-TBI tau mislocalization” value (tau; [2]) is reported as “This protective effect is blocked”.
With COc1cccc(NCC(F)Cn2c3ccc(Br)cc3c3cc(Br)ccc32)c1 (stereo not drawn) [P7C3-A20, 3,6-dibromo-β-fluoro-N-(3-methoxyphenyl)-9H-carbazole-9-propanamine] the SNO-GAPDH (GAPDH) was “SNO-GAPDH is not affected”, the “brain NAD^+ levels” value (NAD^+; P7C3-A20 daily IP from 24 h after TBI, cerebral cortex) was “rescued normal NAD^+ levels after TBI” and the “post-TBI AIS degradation” value (axon initial segment; [3]) was “protects mice from post-TBI AIS degradation”. The post-TBI tau mislocalization (tau; [3]) was “protects mice from post-TBI tau mislocalization”.
For CC(=O)Oc1ccccc1C(=O)O [aspirin], the “incidence of dementia, minor cognitive impairment, or cognitive decline” value [1] is given as “does not significantly reduce the incidence of dementia, minor cognitive impairment, or cognitive decline” and the “inhibition of p300/CBP” value (p300/CBP) is given as “does not inhibit p300/CBP”.
